Results as given in patent publication US5177188A, “Methods and compositions for diagnosing chronic immune thrombocytopenic purpura” (The Scripps Research Institute, priority 1990, dated 1993).

Legend:
Design in all cases: species or system human
[1] = test system: antipeptide antibody binding to GPIIIa peptides; test: Inhibition of antipeptide antibody binding to GPIIIa peptides by platelets or purified GPIIb/IIIa; conditions: plasma ITP-1, -2, -3 (1/10 dilution) preincubated with inhibitor
Description: (§1) To evaluate the ability of washed platelets, affinity-purified GPIIb/IIIa or synthetic peptides to block autoantibody binding, serial dilutions of platelets, GPIIb/IIIa or synthetic peptides (maximum addition: 10^10 platelets, 200 μg GPIIb/IIIa or 10 μg of peptide per 100 μl plasma, respectively) were incubated overnight at 4° C. with the patient's plasma. The preincubated plasma (100 μl 1/10 dilution) was added to replicate wells containing either GPIIb/IIIa from platelet lysate, affinity-purified GPIIb/IIIa or synthetic peptide, and antibody binding to each well was evaluated as describe above. Data were expressed as a percent of the binding of untreated plasma (% inhibition).
Three of the peptide-positive plasma samples (ITP-1, -2 and -3) were tested further; additional testing of ITP-4 and ITP-5 was not possible due to insufficient plasma.

[2] = test system: plasma autoantibodies (anti-GPIIIa) of chronic ITP patients; test: Solid-phase radioimmunoassay: plasma autoantibody binding to well-bound synthetic GPIIIa peptide
Description: Microtiter wells were activated with 100 μl of 0.1% glutaraldehyde in coating buffer (0.1M NaHCO3, pH 8.3) for 1 hr at room temperature (RT). Wells were washed twice with PBS and then incubated for 2 hr at PT with 1 μg of each synthetic peptide in 100 μl of coating buffer. After 6 washes with 0.05% Tween-20 (Sigma Chemical Co., St. Louis, MO) in PBS (wash buffer), each well was incubated with 200 μl of 2% BSA in wash buffer for 1 hr at RT. The wells were washed 6 times, followed by the addition to triplicate wells of 100 μl of plasma diluted 1/10 in wash buffer. After incubation for 1 hr and 6 washes, 100 μl of radiolabeled anti-human igG in wash buffer (100,000 cpm) was added to each well. After a final 1 hr incubation and 6 washes, well-bound radioactivity was determined. Data were expressed as a ratio: Mean cpm bound to GPIIIa peptide divided by mean cpm bound to control peptide (P10).
Nine synthetic peptides corresponding to different sequences within platelet GPIIIa (P1-P9, Table 1) were used as antigenic targets. A synthetic peptide of human HLA Class I heavy chain was used as a control (P10). Plasma from 13 patients with chronic ITP was studied. […] These 2 hydrophilic overlapping peptides are located at the carboxyterminal region of GPIIIa and together comprise the portion of the molecule considered to be the cytoplasmic domain. Plasma for patients ITP-1 and ITP-2 bound to peptide 9 with mean ratios of 32.4 (3 studies) and 5.8 (2 studies), respectively, while patient ITP-3 plasma bound to both peptides 8 and 9 (mean ratios of 13.3 and 3.3, respectively; 3 studies) and patients ITP-4 and ITP-5 bound to peptide 8 (mean ratios of 3.6, 2 studies and 9.4, 2 studies).

[3] = test system: autoantibody binding to washed platelets; test: Inhibition of autoantibody binding to washed platelets by peptide
Description: Washed platelets (3×10^7) were incubated with patient plasma (ITP-1-15 μl, ITP-2-60 μl, ITP-3-30 μl) in a total volume of 200 μl citrate buffer for 2 hrs at room temperature, followed by 4 washes. After resuspension in 300 μl of citrate buffer, platelets were lysed with 33 μl of 10% Triton X-100 in citrate buffer. Next, 100 μl of lysate was added to wells coated with murine anti-GPIIb. Bound antibody was detected with labeled anti-human IgG as described.
as §1
To evaluate the contribution of these antipeptide antibodies to the patients' total plasma anti-GPIIb/IIIa activity, the ITP plasmas were preincubated with serial dilutions of the appropriate peptide (8 or 9) and then tested in 4 different assays. In the first, the pretreated plasma was incubated with platelets. After washing and lysis, the GPIIb/IIIa complexes were captured on microtiter wells by monoclonal antibody. In the other 3 assays, pretreated plasma was added to microtiter wells coated directly with either peptide or affinity-purified GPIIb/IIIa (Aff-GPIIb/IIIa) or to microtiter wells with GPIIb/IIIa from plate let lysate immobilized by monoclonal antibody (Moab-GPIIb/IIIa). Antibody binding was detected in all assays with labeled antihuman IgG.

| Substance | inhibition of antibody reactivity of plasma with the GPIIIa peptides [1] | mean binding ratio (cpm bound to GPIIIa peptide / cpm bound to control peptide P10) ([2]; plasma of patient ITP-1, 1/10 dilution, 3 studies) | mean binding ratio (cpm bound to GPIIIa peptide / cpm bound to control peptide P10) ([2]; plasma of patient ITP-2, 1/10 dilution, 2 studies) | mean binding ratio (cpm bound to GPIIIa peptide / cpm bound to control peptide P10) ([2]; plasma of patient ITP-3, 1/10 dilution, 3 studies) | inhibition of autoantibody binding to washed platelets ([3]; plasma ITP-1 preincubated with peptide, 3 studies (range)) | inhibition of autoantibody binding to washed platelets ([3]; plasma ITP-2 preincubated with peptide, 2 studies) | inhibition of antibody binding to both platelets and GPIIb/IIIa from platelet lysates ([3]; plasma from ITP-1 and ITP-2 preincubated with peptide, summary in discussion) |
| --- | --- | --- | --- | --- | --- | --- | --- |
| affinity-purified GPIIb/IIIa: GPIIb/IIIa complex eluted from an anti-GPIIb monoclonal antibody (2A9) column loaded with platelet extract | completely inhibited |  |  |  |  |  |  |
| ANNPLYKEATSTFTNITYRDT (ANNPLYDEATSTFTNITYRDT) [P9] |  | 32.4 | 5.8 | 3.3 | 87.8-98.0 | 94.0% | > 80% |
